Data as given in PubChem BioAssay AID2060325 (Molecular Pharmacology Branch, DTP, NCI, 2025).

Tested on: SK-OV-3 multi-cell spheroids, viability
Assay: Anticancer human tumor SK-OV-3 cell line growth inhibition [IpAb];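 for viability, T/C: viability read after seven days of drug exposure; percent of DMSO vehicle control luminescence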
Settings: for IC50: curve of first compound; for viability, T/C: stronger effect = lower value
Procedure, shortened: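 Combinations with ipatasertib or abemaciclib were tested on tumour spheroids holding HUVEC (25%) and MSC (15%) alongside 60% malignant cells. Top concentration was at or near clinical Cmax (10 microM if undefined), descending in half-log steps.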

What does the source list for `CCCS(=O)(=O)Nc1ccc(F)c(C(=O)c2c[nH]c3ncc(-c4ccc(Cl)cc4)cc23)c1F` + CCN1CCN(Cc2ccc(Nc3ncc(F)c(-c4cc(F)c5nc(C)n(C(C)C)c5c4)n3)nc2)CC1?
IC50 (second compound 0.01 µM): 9390 nM; IC50 (second compound 0.0316 µM): 5140 nM; IC50 (second compound 0.1 µM): 1240 nM; IC50 (second compound 0.316 µM): 822 nM; IC50 (second compound 1 µM): < 31.6 nM; viability, T/C (second compound 0.01 µM, first compound 0.0316 µM): 95.1%; viability, T/C (second compound 0.01 µM, first compound 0.1 µM): 93.5%; viability, T/C (second compound 0.01 µM, first compound 0.316 µM): 89.1%; viability, T/C (second compound 0.01 µM, first compound 1 µM): 85.5%; viability, T/C (second compound 0.01 µM, first compound 3.16 µM): 80.3%; viability, T/C (second compound 0.01 µM, first compound 10 µM): 48%; viability, T/C (second compound 0.0316 µM, first compound 0.0316 µM): 70.1%; viability, T/C (second compound 0.0316 µM, first compound 0.1 µM): 69.7%; viability, T/C (second compound 0.0316 µM, first compound 0.316 µM): 70.3%; viability, T/C (second compound 0.0316 µM, first compound 1 µM): 68.1%; viability, T/C (second compound 0.0316 µM, first compound 3.16 µM): 65.3%; viability, T/C (second compound 0.0316 µM, first compound 10 µM): 29.3%; viability, T/C (second compound 0.1 µM, first compound 0.0316 µM): 55.3%; viability, T/C (second compound 0.1 µM, first compound 0.1 µM): 59.5%; viability, T/C (second compound 0.1 µM, first compound 0.316 µM): 57.4%; viability, T/C (second compound 0.1 µM, first compound 1 µM): 51.7%; viability, T/C (second compound 0.1 µM, first compound 3.16 µM): 39.6%; viability, T/C (second compound 0.1 µM, first compound 10 µM): 20.1%; viability, T/C (second compound 0.316 µM, first compound 0.0316 µM): 53.2%; viability, T/C (second compound 0.316 µM, first compound 0.1 µM): 55.7%; viability, T/C (second compound 0.316 µM, first compound 0.316 µM): 52.9%; viability, T/C (second compound 0.316 µM, first compound 1 µM): 46.5%; viability, T/C (second compound 0.316 µM, first compound 3.16 µM): 44.1%; viability, T/C (second compound 0.316 µM, first compound 10 µM): 25.4%; viability, T/C (second compound 1 µM, first compound 0.0316 µM): 41.2%; viability, T/C (second compound 1 µM, first compound 0.1 µM): 44.4%; viability, T/C (second compound 1 µM, first compound 0.316 µM): 48.1%; viability, T/C (second compound 1 µM, first compound 1 µM): 38.6%; viability, T/C (second compound 1 µM, first compound 3.16 µM): 36.8%; viability, T/C (second compound 1 µM, first compound 10 µM): 24.2%
